Experimental data as given in publication PMC5702387, “The Antifungal Plant Defensin HsAFP1 Is a Phosphatidic Acid-Interacting Peptide Inducing Membrane Permeabilization” (Frontiers in Microbiology, 2017).

Tests used:
Type in all cases: binding
HsAFP1 [1] = target: T1, HsAFP1 (Heuchera sanguinea, UniProt P0C8Y5); test: DSC of lipid vesicles (lipid phase transition); details: PC/PG/PA 75/15/10 vesicles, 0.5 mM; 40 uM HsAFP1; HEPES pH 7, low salt
T1 construct: mature plant defensin, recombinantly produced in Pichia pastoris and purified

HsAFP1 [2] = target: T1, HsAFP1; test: rELISA, immobilised lipid; details: 12.5 uM HsAFP1; pH 7.4; 37 C
HsAFP1 [3] = target: T2, HsAFP1 (Heuchera sanguinea, UniProt P0C8Y5, H32A/R52A); test: rELISA, immobilised lipid; details: 12.5 uM peptide; PBS-based blocking buffer pH 7.4; 37 C
T2 construct: mature plant defensin, recombinantly produced in Pichia pastoris and purified
T2 sequence (P0C8Y5 whole entry H32A/R52A): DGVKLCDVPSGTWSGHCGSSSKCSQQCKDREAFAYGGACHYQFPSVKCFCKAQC

T1 sequence (P0C8Y5 whole entry): as the sequence (P0C8Y5 whole entry H32A/R52A) above, with A32H, A52R counted along it

`CCCCCCCCCCCCCC(=O)OC[C@H](COP(=O)(O)O)OC(=O)CCCCCCCCCCCCC` [dimyristoylphosphatidic acid] was tested, and the “DSC of lipid vesicles (lipid phase transition)” value (HsAFP1 [1]) was “HsAFP1 specifically interacted with vesicles containing PA”.

methyl-PA was tested, and the “% reduction of binding vs PA” value (HsAFP1 [2]) was over 75%.

phosphatidic acid was tested, and the “% reduction of binding vs native HsAFP1” value (HsAFP1 [3]) was 77%.
